Laboratory results from patent US10292388B2, “Malononitrile compounds for controlling animal pests” (BASF SE, priority 2012, dated 2019).

How the values were obtained:
[1] = tested on: yellow fever mosquito (Aedes aegypti); experiment: whole plant or invertebrate; assay type: in vivo; settings: 48 h, freshly hatched larvae in tap water, larval mortality after 2 days, read-out: mortality in comparison with untreated controls
Procedure: B.12 Yellow Fever Mosquito (Aedes aegypti)
For evaluating control of yellow fever mosquito (Aedes aegypti) the test unit consisted of 96-well-microtiter plates containing 200 μl of tap water per well and 5-15 freshly hatched A. aegypti larvae. The compounds or mixtures were formulated using a solution containing 75% water and 25% DMSO. Different concentrations of formulated compounds or mixtures were sprayed onto the insect diet at 2.5 μl, using a custom built micro atomizer, at two replications. After application, microtiter plates were incubated at 28±1° C., 80±5% relative humidity for 2 days. Larval mortality was then visually assessed.

[2] = tested on: boll weevil (Anthonomus grandis); experiment: Boll weevil microtiter plate diet test; assay type: in vivo; settings: 120 h, sprayed onto insect diet with eggs, egg and larval mortality after 5 days, read-out: mortality in comparison with untreated controls
Procedure: B.9 Boll Weevil (Anthonomus grandis)
For evaluating control of boll weevil (Anthonomus grandis) the test unit consisted of 24-well-microtiter plates containing an insect diet and 20-30 A. grandis eggs. The compounds were formulated using a solution containing 75% v/v water and 25% v/v DMSO. Different concentrations of formulated compounds were sprayed onto the insect diet at 20 μl, using a custom built micro atomizer, at two replications. After application, microtiter plates were incubated at about 23±1° C. and about 50±5% relative humidity for 5 days. Egg and larval mortality was then visually assessed.

Q: What does the source list for C#Cc1ccc(CC(C#N)(C#N)c2ccc(C#N)cc2)cc1 [II-77, 2-(4-cyanophenyl)-2-[(4-ethynylphenyl)methyl]-propanedinitrile]?
A: mortality at 2500 ppm [1]: ≥ 75%; mortality at 2500 ppm [2]: ≥ 75%
